The test system of one experiment is sclerostin. The experiment in a line: Irisin injection in mice: sclerostin mRNA in osteocyte-enriched bones and plasma sclerostin protein (ELISA). Format: in vivo. The settings on record: co-injection of 1 mg/kg inhibitor with irisin. Here is the method: 8 weeks old mice were injected daily with indicated dose of irisin for 6 days. […] were collected and treated with collagenase to yield osteocyte-enriched bones. Sclerostin mRNA level from osteocyte-enriched tibia was analyzed by qPCR (FIG. 7A). Cyclophilin was used as a house-keeping gene. Plasma was collected to analyze the circulating sclerostin protein level by ELISA assay (FIG. 7B). Data are represented as mean±SEM. For FIG. 7A and FIG. 7B, n=5 animals/group. * indicates p<0.05, and *** indicates p<0.001.
Certain materials and methods were used to generate the results described herein. For example, the data shown in FIG. 1A resulted from MLO-Y4 (an osteocyte-like cell line) cells treated with the indicated concentration of irisin and hydrogen peroxide for 4 hours. Cells were stained with Hoechst 33342 (ThermoFisher Scientific, catalog number H3570) and Eth-D1 (ThermoFisher Scientific, catalog number E1169) and analyzed to determine the percentage of cell death using ImageJ. […] Co-precipitated irisin was analyzed by immunoblot analysis against flag tag (Sigma Aldrich, catalog number A8592). The data shown in FIGS. 5A and 5B were generated from MLO-Y4 cells treated and analyzed as in the experiments used to generate the data shown in FIG. 2D, except that pre-treatment of 100 nM RGDS (FIG. 5A) or echistatin (R & D Systems Inc., catalog number 3202/100U) (FIG. 5B) for 10 minutes was performed before irisin treatment. […] RNAs were extracted from the cells and the sclerostin mRNA level was analyzed by qPCR (FIG. 6A) or treated and analyzed as in (FIG. 6A), except that pre-treatment of 10 μM RGDS, RGDyK (Selleck, catalog number S7844), or echistatin was performed for 10 minutes before irisin treatment. […] Sclerostin mRNA level was analyzed by qPCR (FIG. 7A). […] Epididymal fats were collected, RNAs were extracted from the tissues, and mRNA levels of the indicated genes were analyzed by qPCR. […]
On the technique in general: In an ELISA, binding on a coated surface is turned into a signal by an enzyme label.

Another experiment concerns MLO-Y4 cells. As to the kind of experiment: Integrin-like signaling (pFAK, pZyxin, pAKT, pCREB) in MLO-Y4 cells, immunoblot. Type of experiment: cell-based. The following applies: for effect of integrin inhibitor on irisin-induced signaling (phosphorylation of FAK, Zyxin, CREB): MLO-Y4, inhibitor pre-treatment 10 minutes before irisin. The method, then: Integrin heterodimer binds to its ligand. The interaction results in phosphorylation of FAK and Zyxin, followed by phosphorylation of AKT (at T308) and CREB. PM is plasma membrane. FIG. 2C and FIG. 2D show the immunoblots. MLO-Y4 cells were seeded and incubated until 60% cell density. The cells were incubated with serum free medium (FreeStyle™ 293 medium) for 4 hours and were treated for indicated time with 10 nM norepinephrine or irisin (FIG. 2C) or indicated concentrations of irisin for 10 minutes (FIG. 2D). Cells were lysed to detect the indicated protein level using immunoblot analysis.
(§1) Certain materials and methods were used to generate the results described herein. For example, the data shown in FIG. 1A resulted from MLO-Y4 (an osteocyte-like cell line) cells treated with the indicated concentration of irisin and hydrogen peroxide for 4 hours. Cells were stained with Hoechst 33342 (ThermoFisher Scientific, catalog number H3570) and Eth-D1 (ThermoFisher Scientific, catalog number E1169) and analyzed to determine the percentage of cell death using ImageJ. The data shown in FIG. 2D resulted from MLO-Y4 incubated in serum free medium (FreeStyle™ 293 expression medium, ThermoFisher Scientific, catalog number 12338018) for 4 hours followed by treatment of indicated concentrations of irisin for 10 minutes. Cells were lysed to detect the indicated protein level using immunoblot analysis (Cell Signaling Technology, catalog numbers 3283S, 3285S, 8467S, 3553S, 9198S, and 9104S; Abcam, catalog number ab49900-100ul). The data shown in FIG. 3 resulted from 3T3-F442A cells incubated in serum free medium for 4 hours followed by treatment of indicated concentrations of irisin for 10 minutes. Cells were lysed by RIPA buffer to detect the indicated protein level using immunoblot analysis. The data shown in FIG. 4 were generated from 100 nM flag-tagged irisin (Enzo life sciences, catalog number ADI-908-307-3010) incubated with 5 nM of the indicated 6 his-tag integrins (R & D Systems Inc., catalog numbers 7064-AB-025, 5668-A4-050, 5438-A9-050, 6357-AB-050, and 6579-AV-025) in the presence of RGDS peptide (R & D Systems Inc., catalog number 3498/10) or its control peptide (Enzo Life Sciences, catalog Number BML-P701-0005) followed by immunoprecipitation using 6 his-tag beads (ThermoFisher Scientific, catalog number R901-01). Co-precipitated irisin was analyzed by immunoblot analysis against flag tag (Sigma Aldrich, catalog number A8592). The data shown in FIGS. 5A and 5B were generated from MLO-Y4 cells treated and analyzed as in the experiments used to generate the data shown in FIG. 2D, except that pre-treatment of 100 nM RGDS (FIG. 5A) or echistatin (R & D Systems Inc., catalog number 3202/100U) (FIG. 5B) for 10 minutes was performed before irisin treatment. The data shown in FIGS. 6A and 6B were generated from MLO-Y4 cells incubated in serum free medium for 3 hours followed by treatment of indicated time of 10 nM irisin for 16 hours. RNAs were extracted from the cells and the sclerostin mRNA level was analyzed by qPCR (FIG. 6A) or treated and analyzed as in (FIG. 6A), except that pre-treatment of 10 μM RGDS, RGDyK (Selleck, catalog number S7844), or echistatin was performed for 10 minutes before irisin treatment. The data shown in FIGS. 7A and 7B were generated from 8 week-old mice injected with the indicated dose of irisin for 6 days. Tibias were collected and treated with collagenase to obtain mRNA from the osteocyte-enriched bones. Sclerostin mRNA level was analyzed by qPCR (FIG. 7A). Serum was collected to analyze the sclerostin protein level using ELISA kit (R&D Systems Inc., catalog number MSST00) (FIG. 7B). The data shown in FIG. 8 were generated from 8 week-old mice injected with the indicated dose of irisin for 6 days. Epididymal fats were collected, RNAs were extracted from the tissues, and mRNA levels of the indicated genes were analyzed by qPCR. […]
On the technique in general: Immunoblotting shows a protein as a band on a membrane.

In experiment [1] the test system is sclerostin mRNA in MLO-Y4 cells. The experiment in a line: Sclerostin mRNA in MLO-Y4 cells, qRT-PCR. Format: cell-based, mouse. The following applies: MLO-Y4, inhibitor pre-treatment 10 minutes, irisin 16 hours. Here is the method:
Cells were stained with Hoechst 33342 and Eth-D1, and analyzed to determine the percentage of cell death. *: p<0.05, ***: p<0.001 vs 0.3 mM H2O2 treated condition. […] MLO-Y4 cells were seeded and incubated until 60% cell density. The cells were incubated with Freestyle293 medium for 4 hours and were treated with indicated concentrations of irisin for 16 hours. Sclerostin mRNA level was analyzed by qRT-PCR. Cyclophilin was used as a control house-keeping gene.
MLO-Y4 cells were incubated in serum free medium for 3 hours followed by treatment of indicated concentrations of irisin for indicated time (FIG. 6A), or followed by treatment of 0 or 10 nM irisin in the presence of indicated integrin inhibitors or their control peptide for 16 hours (FIG. 6B). Sclerostin mRNA level was analyzed by qPCR.
as §1, with “The data shown in FIGS. 7A and 7B were generated from 8 week-old mice injected with the indicated dose of irisin for 6 days. Tibias were collected and treated with collagenase to obtain mRNA from the osteocyte-enriched bones.” left out, “7A).” for “7A). Serum was collected to analyze the sclerostin protein level using ELISA kit (R&D Systems Inc., catalog number MSST00) (FIG. 7B). The data shown in FIG. 8 were generated from 8 week-old mice injected with the indicated dose of irisin for 6 days. Epididymal fats were collected, RNAs were extracted from the tissues, and mRNA levels of the indicated genes were analyzed by qPCR.”

Entries after “also recorded” stand apart in the source; their conditions may differ. Counter-ions that a name gives are not always drawn.

Take `CNc1cccc(CCOc2ccc3c(c2)CN(CC(F)(F)F)C(=O)[C@H](CC(=O)O)C3)n1` [SB273005, reference compound]: the “effect on irisin-induced gene expression of sclerostin in osteocyte-enriched bones” value in the experiment on sclerostin is “significantly prevented”. For the same compound, the “effect of integrin inhibitor on irisin-induced signaling (phosphorylation of FAK, Zyxin, CREB)” value in the experiment on MLO-Y4 cells is on record as “block irisin-induced signaling”.

For `NC[C@H](O)c1ccc(O)c(O)c1` [norepinephrine, L-(−)-Norephinephrine (+)-bitartrate salt monohyrdate], in the experiment with MLO-Y4 cells (MLO-Y4, 10 nM), the “phosphorylation of CREB (positive control)” value is “also did this”.

In the case of “echistatin: natural integrin inhibitor isolated from viper venom, affects primarily integrin αV complexes (QCESGPCCRNCKFLKEGTICKRARGDDMDDYCNGKTCDCPRNPHKGPAT)”, in experiment [1], the “effect of integrin inhibitor on irisin-induced sclerostin mRNA” value is given as “sensitive; also recorded: prevented sclerostin induction”. Moreover, the figures for the “effect of integrin inhibitor on irisin-induced signaling (phosphorylation of FAK, Zyxin, CREB)” value with MLO-Y4 cells and with MLO-Y4 cells (listed as Echistatin) were “most irisin signaling in osteocytes was inhibited” and “effectively prevented irisin signaling”, respectively.

The values are drawn from patent US20210063414A1, “METHODS FOR PREVENTING AND/OR TREATING BONE LOSS CONDITIONS BY MODULATING IRISIN” (Dana-Farber Cancer Institute, Inc., priority 2018, published 2021).
